The text below walks through data of patent publication US20240059698A1 (Accutar Biotechnology Inc., priority 2022, published 2024).

What all share (type): cell-based
The subject of assay [1] is HCC827-YVMA cells (human ERBB2 exon20 insertion mutant A775_G776ins YVMA). Kind of assay: Cell growth inhibition (CellTiter-Glo), HCC827-YVMA. The following applies: 72 h, HCC827-YVMA cells, 3 days, CellTiter-Glo, read-out: Cell growth inhibition, GI50 (nM) HCC827-YVMA. The method, boiled down: (§1)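 HCC827 cells transduced with lentiviral codon-optimized mutant (ERBB2 A775_G776insYVMA or EGFR V769_D770insASV), endogenous EGFR knocked out by CRISPR, single clone selected. Cells seeded overnight in RPMI/10% FBS, then exposed to serially diluted compounds at 37 °C for 3 days; viability read by CellTiter-Glo luminescence.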
(In general: In ATP-based viability assays light output follows the ATP content of the culture.)

The test system of assay [2] is HCC827-SVD cells (human EGFR exon 20 insertion mutant D770_N771insSVD). Kind of assay: Cell growth inhibition (CellTiter-Glo), HCC827-SVD. The following applies: 72 h, 3 days. The method, boiled down:
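HCC827 cells with endogenous EGFR knocked out and lentivirally expressing the insertion mutant (single clone) were seeded at 5000 cells/well in RPMI with 10% FBS. After overnight, compounds added; 3 days at 37 °C, then CellTiter-Glo luminescence.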

The test system of assay [3] is HCC827-ASV cells (human EGFR exon 20 insertion mutant V769_D770insASV). Kind of assay: Cell growth inhibition (CellTiter-Glo), HCC827-ASV. To be noted: 72 h, HCC827-ASV cells, 3 days, CellTiter-Glo, read-out: Cell growth inhibition, GI50 (nM) HCC827-ASV. The method, boiled down:
as §1

Another assay deals with HCC827 cells. Kind of assay: Cell growth inhibition (CellTiter-Glo), HCC827. The following applies: Homo sapiens, 72 h, 3 days. The method, boiled down:
(§2)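 HCC827 cells in RPMI and A431 cells in DMEM (both 10% FBS) were seeded at 5000 cells/well and left overnight. They were then exposed to compound dilutions for 3 days at 37° C. Viability was read by CellTiter-Glo luminescence.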

In the next assay the test system is A431 cells. Briefly: Cell growth inhibition (CellTiter-Glo), A431. The following applies: Homo sapiens, A-431, 72 h, 3 days. The method, boiled down: as §2

As for `C=CC(=O)N1CCC(c2ccn3ncnc(Nc4ccc(Oc5ccnc(N6C[C@@H](C)O[C@@H](C)C6)c5)cc4F)c23)CC1` [Compound 199, 1-(4-(4-((4-((2-((2R,6S)-2,6-dimethylmorpholino)pyridin-4-yl)oxy)-2-fluorophenyl)amino)pyrrolo[2,1-f][1,2,4]triazin-5-yl)piperidin-1-yl)prop-2-en-1-one], the GI50 (usually the concentration at which growth is held to half of that of the control) in assay [1] is less than 50 nM; in assay [2], less than 50 nM; in assay [3], less than 50 nM; in the assay on HCC827 cells, 50 to 200 nM; in the assay with A431 cells, greater than 1000 nM.
As to `C=CC(=O)N1CCC(c2ccn3ncnc(Nc4ccc(Oc5ccnc(N6CCN(C)CC6)c5)cc4F)c23)CC1` [Compound 201, 1-(4-(4-((2-fluoro-4-((2-(4-methylpiperazin-1-yl)pyridin-4-yl)oxy)phenyl)amino)pyrrolo[2,1-f][1,2,4]triazin-5-yl)piperidin-1-yl)prop-2-en-1-one], the 50% growth inhibitory concentration (GI50) was 200 to 1000 nM in assay [1]; greater than 1000 nM in assay [2]; greater than 1000 nM in assay [3]; greater than 1000 nM with HCC827 cells; greater than 1000 nM with A431 cells.
On to `C=CC(=O)N1CCC(c2ccn3ncnc(Nc4ccc(Oc5ccnc(N6CCC[C@@H](OC)C6)c5)cc4F)c23)CC1` [Compound 202, (R)-1-(4-(4-((2-fluoro-4-((2-(3-methoxypiperidin-1-yl)pyridin-4-yl)oxy)phenyl)amino)pyrrolo[2,1-f][1,2,4]triazin-5-yl)piperidin-1-yl)prop-2-en-1-one], for which the GI50 was 50 to 200 nM in assay [1]; 50 to 200 nM in assay [2]; 200 to 1000 nM in assay [3]; greater than 1000 nM in the assay on HCC827 cells; greater than 1000 nM with A431 cells.
